Values joined by “and” are separate entries in the source; they are usually repeats but may differ in a detail not shown here. Identical values can stand only once.
Experiments:
Format in all cases: in vivo, Erwinia carotovora
[1] = test system: Chinese cabbage soft rot; assay: Test for disease control of Chinese cabbage, field (Example 4 / Comparative example 3); parameters: key to Disease incidence rate: % of examined plants diseased; key to Disease control value: (1 − treated/untreated severity)×100; 100 = full control; key to Disease severity: severity index 0–100 from disease classes 0–4 (sum/(plants×4)×100); conditions: for Disease incidence rate / Disease severity / Disease control value: 64 days; for Disease control value: vs untreated plot
From the text: (§1) (Disease incidence rate)=[(number of diseased plants)/(number of plants examined)]*100
(§2) (Disease severity)={S [(number of diseased plants in each class into which the plants are classified according to the degree of disease)*(disease index)]/[(number of plants examined)*4]}*100
(§3) (Disease control value)={1-[(Disease severity in treated plot)/(Disease severity in untreated plot)]}*100
(§4) Incidentally, the evaluation criteria for the disease index are as follows. • (Disease index) • 0: No lesion • 1: Lesions appear only in part of outer leaves (shipment can be made). • 2: Lesions appear in outer leaves and part of head leaves (the damaged part is removed and shipment as a small size plant can be made, rated Grade B). • 3: Lesions appear in most head leaves or more (shipment cannot be made). • 4: Lesions appear in the entire plant and the plant dies.
Preparation was performed using 500 g/L of 3-chloro-N-(3-chloro-5-trifluoromethyl-2-pyridyl)-alpha,alpha,alpha-trifluoro-2,6-dinit ro-p-toluidine (fluazinam, Frowncide SC (trade name), manufactured by Ishihara Sangyo Kaisha, Ltd.) such that the amount of the active ingredient was 62.5 g ai/10 a (125 mL product/10 a), 125 g ai/10 a (250 mL product/10 a), and 250 g ai/10 a (500 mL product/10 a), and each amount of dilution water was 150 L/10 a.
A mulch-sheet for agricultural use was spreaded on soil, and planting holes for settlement (diameter: about 5 cm) were made, and then, the spray solution prepared in the above was sprayed onto the planting holes such that the amount of treated active ingredient was 0.0625 g/m^2 (150 L/10 a) in the case of the spray solution containing the active ingredient at 62.5 g ai/10 a, 0.125 g/m^2 (150 L/10 a) in the case of the spray solution containing the active ingredient at 125 g ai/10 a, and 0.25 g/m^2 (150 L/10 a) in the case of the spray solution containing the active ingredient at 250 g ai/10 a, followed by air-drying. Then, seedlings of Chinese cabbage (cultivar: Harebutai 65) grown for 4 weeks in a cell tray (128 holes/nursery box) were planted such that 19 seedlings were planted in one test plot having an area of 2.4 m^2 with two replications.
Preparation was performed by diluting streptomycin (Mycin 20 wettable powder (trade name), manufactured by Hokko Chemical Industry Co., Ltd.) with water to 1/1000.
In a field covered with a mulch-sheet for agricultural use, seedlings of Chinese cabbage (cultivar: Harebutai 65) grown in a cell tray were planted, in the same manner as in Example 4, and foliage application was performed with a sprayer by spraying the spray solution of streptomycin prepared in (1) (spraying amount per application: 300 L/10 a) twice (27 days and 48 days after the planting of the seedlings).
(§5) The degree of disease incidence was examined for all the plants in each test plot 64 days after the start of the test, and the disease severity and the disease control value were evaluated. Incidentally, the disease severity and the disease control value were obtained in the same manner as described above.

[2] = test system: Chinese cabbage soft rot; assay: Test for disease control of Chinese cabbage, field (Example 2); parameters: key to Disease incidence rate: % of examined plants that are diseased; key to Disease control value: (1 − severity treated/severity untreated) × 100; key to Disease severity: Σ(diseased plants per class × index 0-4)/(plants × 4) × 100; conditions: 250 g ai/10 a, 50 days
From the text: as §1, §2, §3, §4
(§6) Preparation was performed using 500 g/L of • 3-chloro-N-(3-chloro-5-trifluoromethyl-2-pyridyl)-alpha,alpha,alpha-trifluoro-2,6-dinit ro-p-toluidine (fluazinam, Frowncide SC (trade name), manufactured by Ishihara Sangyo Kaisha, Ltd.) such that the amount of the active ingredient was 250 g ai/10 a (500 mL product/10 a), and the amount of dilution water was 150 L/10 a.
(§7) A mulch-sheet for agricultural use was spreaded on soil, and planting holes for settlement (diameter: about 5 cm) were made, and then, the spray solution prepared in the above was sprayed onto the planting holes such that the spraying amount was 0.25 g/m^2 (150 L/10 a), followed by air-drying. Then, seedlings of Chinese cabbage (cultivar: Yumebuki) grown for 4 weeks in a cell tray (128 holes/nursery box) were planted such that 34 to 40 seedlings were planted in one test plot having an area of 4.8 m^2 with three replications.
as §5, with “50” for “64”

[3] = test system: Chinese cabbage soft rot; assay: Test for disease control of Chinese cabbage with or without mulch-sheet, field (Example 5); parameters: key to Disease incidence rate: % of examined plants that are diseased; key to Disease control value: (1 − severity treated / severity untreated) × 100; key to Disease severity: Σ(plants per class × index 0-4)/(plants examined × 4) × 100; conditions: 250 g ai/10 a; for Disease incidence rate / Disease severity / Disease control value: 150 L/10 a, Harebutai 65, 64 days; for Disease control value: vs untreated plot
From the text: as §1, §2, §3, §4
as §6, with “of” for “of •”
as §7, with “Harebutai 65)” for “Yumebuki)”, “19” for “34 to 40”, “2.4” for “4.8”, “two” for “three”
The spray solution prepared in the above was sprayed onto the planting holes such that the spraying amount was 0.25 g/m^2 (150 L/10 a) without spreading a mulch-sheet for agricultural use, followed by air-drying. Then, seedlings of Chinese cabbage (cultivar: Harebutai 65) grown for 4 weeks in a cell tray (128 holes/nursery box) were planted such that 19 seedlings were planted in one test plot having an area of 2.4 m^2 with two replications.
as §5

[4] = 1/1000 dilution, foliage application twice, Harebutai 65, Average
[5] = 150 L/10 a onto planting holes, Yumebuki, Average of replications
[6] = with mulch-sheet for agricultural use, Average
[7] = with mulch-sheet for agricultural use, single replications I-II
[8] = without mulch-sheet for agricultural use, Average
[9] = 62.5 g ai/10 a, 150 L/10 a onto planting holes, Harebutai 65, Average
[10] = 125 g ai/10 a, 150 L/10 a onto planting holes, Harebutai 65, Average
[11] = 250 g ai/10 a, 150 L/10 a onto planting holes, Harebutai 65, Average
[12] = 250 g ai/10 a, 150 L/10 a onto planting holes, Harebutai 65, single replications I-II

Q: For `[H]/N=C(/N)N[C@H]1[C@H](O)[C@@H](O)[C@H](O[C@@H]2O[C@@H](C)[C@](O)(C=O)[C@H]2O[C@@H]2O[C@@H](CO)[C@H](O)[C@@H](O)[C@@H]2NC)[C@@H](N/C(N)=N\[H])[C@@H]1O` [Streptomycin, streptomycin], which Disease incidence rate ([1]; 1/1000 dilution, foliage application 300 L/10 a twice (27 and 48 days), Harebutai 65, single replications I-II) is on record?
A: 44.4 and 63.2

Q: And the Disease incidence rate [1, 4]?
A: 53.8

Q: What about the Disease severity [1, 4] of the same compound?
A: 14.9

Q: What about the Disease severity ([1]; 1/1000 dilution, foliage application twice, Harebutai 65, single replications I-II) of the same compound?
A: 13.9 and 15.8

Q: What about the Disease control value ([1]; 1/1000 dilution, foliage application twice, Harebutai 65) of the same compound?
A: 52.8

Q: What does the source list for `O=[N+]([O-])c1cc(C(F)(F)F)c(Cl)c([N+](=O)[O-])c1Nc1ncc(C(F)(F)F)cc1Cl` [Fluazinam, 3-chloro-N-(3-chloro-5-trifluoromethyl-2-pyridyl)-alpha,alpha,alpha-trifluoro-2,6-dinit ro-p-toluidine]?
A: Disease incidence rate [2, 5]: 45.4; Disease severity [2, 5]: 16.4; Disease severity ([2]; 150 L/10 a onto planting holes, Yumebuki, single replications I-III): 19.4 and 13.1 and 16.7; Disease control value ([2]; 150 L/10 a onto planting holes, Yumebuki, vs untreated plot): 66.4; Disease incidence rate ([2]; 150 L/10 a sprayed onto planting holes of mulch-sheet, cultivar Yumebuki, single replications I-III): 55.0 and 37.5 and 43.6; Control effect without mulch-sheet compared with treated plot covered with mulch-sheet (in words) ([3]; Table 5 test, moderate incidence conditions): substantially equal; Disease incidence rate [3, 6]: 31.2; Disease severity [3, 6]: 8.5; Disease incidence rate [3, 7]: 23.5 and 38.9; Disease severity [3, 7]: 5.9 and 11.1; Disease control value ([3]; with mulch-sheet for agricultural use): 73.1; Disease incidence rate [3, 8]: 28.9; Disease severity [3, 8]: 8.6; Disease control value ([3]; without mulch-sheet for agricultural use): 72.8; Disease incidence rate [1, 9]: 44.7; Disease severity [1, 9]: 13.8; Disease severity ([1]; 62.5 g ai/10 a, 150 L/10 a onto planting holes, Harebutai 65, single replications I-II): 9.2 and 18.4; Disease control value ([1]; 62.5 g ai/10 a, 150 L/10 a onto planting holes, Harebutai 65): 56.3; Disease incidence rate ([1]; 62.5 g ai/10 a, 150 L/10 a onto planting holes, cultivar Harebutai 65, single replications I-II): 36.8 and 52.6; Disease incidence rate [1, 10]: 36.1; Disease severity [1, 10]: 10.5; Disease control value ([1]; 125 g ai/10 a, 150 L/10 a onto planting holes, Harebutai 65): 66.8; Disease incidence rate [1, 11]: 31.2; Disease severity [1, 11]: 8.5; Disease incidence rate [1, 12]: 23.5 and 38.9; Disease severity [1, 12]: 5.9 and 11.1; Disease control value ([1]; 250 g ai/10 a, 150 L/10 a onto planting holes, Harebutai 65): 73.1; Control effect on Chinese cabbage soft rot compared with foliage application of streptomycin (in words) ([1]; Table 4 test, moderate incidence conditions, even at 62.5 g ai/10 a or 125 g ai/10 a): a higher control effect
